Source: US8084430B2, “ENT-kaurene diterpene compound and its derivatives, their preparation and their use” (Zhengzhou University, priority 2006, dated 2011)
≈ marks a conversion by molar mass, not a printed value. Entries after “also recorded” stand apart in the source; their conditions may differ.

Key:
[1] = tested on: β-glucosidase; experiment: Inhibitory activity against glycosidase (β-glucosidase); format: biochemical, baker's yeast
Experimental: (§1) After keeping at 37° C. for 40 min, the reaction substrate, p-nitrophenyl glucoside (2.5 mM, 20 μl), was added in each well, and kept at 37° C. for 5 min. The reaction was terminated by addition of buffer, 0.1 M Na2CO3 100 μl, and the OD value was determined at 405 nm by colorimetric method. 0.067M phosphate buffer containing 10% DMSO was used instead of the compounds in negative control group. Inhibition rate=(1−OD value of experimental group/OD value of negative control group)×100%, the IC50 value was calculated by drawing.

[2] = tested on: Human esophageal carcinoma Ec109 cells; experiment: MTT activity against esophageal carcinoma Ec109 cells; format: cell-based
Experimental: Human esophageal carcinoma Ec109 cells were taken as target cells (Henan Institute of Medical Sciences), which were cultured in RPMI1640 medium (GIBCO) with 10% fetal bovine serum (TBD) at 37° C., in 5% CO2. The cells in logarithmic growth phase were inoculated in a 96-well plate, each well containing 6×10^3 cells. After 24 hours culture, the Jiyuan oridonin A (the compound obtained in example 1), derivative 1 and derivative 2 in different concentrations were added. After continuous 48 hours culture, the medical solution was removed carefully by absorption, followed by washing with RPMI 1640 medium without fetal bovine serum 3 times. 200 μL of medium with 0.2 mg/mL MTT were added in each well and incubated at 37° C. for 4 hours. The supernatant was removed and 200 μL of DMSO was added. After 10 min of shaking, the colorimetric method was used to determine the OD value of the control group and sample groups by an enzyme-labeling instrument with a detection wavelength of 570 nm, and a reference wavelength of 450 nm. The inhibition rate against cells of drugs in different concentrations was calculated and hemi-inhibitory concentration IC50 (μg/mL) was calculated based on cell inhibition curve.

[3] = tested on: α-glucosidase; experiment: Inhibitory activity against glycosidase (α-glucosidase); format: biochemical, baker's yeast
Experimental: as §1

C=C1C(=O)C23C([C@@H](O)CC1[C@H]2O)[C@]12CCCC(C)(C)C1C[C@H]3OC2O (stereo partly drawn) [Jiyuan oridonin A]
Inhibitory activity against β-glucosidase ([1]; compound concentration of 1 mM): 25.0
inhibitory activity against β-glucosidase in vitro (conclusion in words) ([1]; in vitro): certain inhibitory activity
cytotoxic activity against Ec109 cell (conclusion in words) ([2]; Ec109 cell): higher cytotoxic activity; also recorded: highest activity
IC50 ([2]; Homo sapiens, ECa-109, Ec109 cells, 48 hours culture, MTT): 4.52 µg/mL (≈ 13 µM)
Inhibitory activity against α-glucosidase ([3]; compound concentration of 1 mM): 26.3
inhibitory activity against α-glucosidase in vitro (conclusion in words) ([3]; in vitro): certain inhibitory activity
